Assay results published in patent publication US7504426B2, “Heterocyclic compounds” (Janssen Pharmaceutica N.V., priority 2003, dated 2009).

How the values were obtained:
[1] = system: Mast cells; assay: Mast cell chemotaxis assay (histamine-induced, transwell); format: cell-based; conditions: 10 μM histamine; HR antagonist 1 μM
Experimental: Mast Cell Chemotaxis Assay
Mast cell accumulation in mucosal epithelia is a well-known characteristic of allergic rhinitis and asthma. Transwells (Costar, Cambridge, Mass.) of a pore size 8 μm were coated with 100 μL of 100 ng/mL human fibronectin (Sigma) for 2 h at room temperature. […] Mast cells (2×10^5/well) were added to the top chamber. The plates were incubated for 3 h at 37° C. Transwells were removed, and the cells in the bottom chamber were counted for sixty seconds using a flow cytometer.

[2] = biological target: T1, human histamine H4 receptor (Homo sapiens, UniProt Q9H3N8); assay: biochemical
[3] = biological target: T1, human histamine H4 receptor; assay: Binding assay on recombinant human histamine H4 receptor (3H-histamine displacement); conditions: read-out: Binding Assay Ki; repeated in the chemotaxis table

T1 sequence (Q9H3N8 whole entry): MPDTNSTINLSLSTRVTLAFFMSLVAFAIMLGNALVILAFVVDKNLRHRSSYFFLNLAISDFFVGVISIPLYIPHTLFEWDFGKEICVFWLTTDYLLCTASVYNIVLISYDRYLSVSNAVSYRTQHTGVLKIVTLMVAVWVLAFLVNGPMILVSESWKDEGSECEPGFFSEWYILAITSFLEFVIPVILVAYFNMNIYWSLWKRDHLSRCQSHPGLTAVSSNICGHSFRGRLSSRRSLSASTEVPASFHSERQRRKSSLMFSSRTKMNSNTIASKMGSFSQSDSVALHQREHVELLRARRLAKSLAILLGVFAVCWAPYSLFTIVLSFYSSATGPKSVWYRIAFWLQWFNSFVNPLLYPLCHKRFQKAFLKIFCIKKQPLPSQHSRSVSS

Compound | % Inh [1] [%] | Ki [2] [nM] | Ki [3] [nM]
O=C(c1nc2cc(Cl)ccc2[nH]1)N1CCNCC1 [Example 7, (5-Chloro-1H-benzoimidazol-2-yl)-piperazin-1-yl-methanone] | 8 | 87 | 87
CN1CCN(C(=O)c2nc3cc(F)c(F)cc3[nH]2)CC1 [Example 9, (5,6-Difluoro-1H-benzoimidazol-2-yl)-(4-methyl-piperazin-1-yl)-methanone] |  | 28 | 28
Cc1ccc2[nH]c(C(=O)NC3CC4CCC(C3)N4C)nc2c1 (stereo not shown) [Example 25, 5-Methyl-1H-benzoimidazole-2-carboxylic acid (8-methyl-8-aza-bicyclo[3.2.1]oct-3-yl)-amide] |  | 613 | 613
